In patent US11130762B2, “Azaaryl derivative, preparation method therefor, and application thereof for use in pharmacy” (Abbisko Therapeutics Co., Ltd., priority 2017, dated 2021):
pIC50: −log10 of the molar value.

Assays:
KIT kinase = KIT kinase (Homo sapiens, UniProt P10721); test: KIT in vitro biochemical kinase study (Caliper EZ Reader); details: Caliper mobility shift; read-out: Enzymatic experiment KIT IC50
Procedure: (§1) B. KIT/PDGFRA In Vitro Biochemical Kinase Study
(§2) 1. Preparation of 1-Fold Kinase Buffer and Stop Solution
(§3) 1.2 stop solution: 100 mM HEPES, pH 7.5, 0.015% Brij-35, 0.2% Coating Reagent #3, 50 mM EDTA
(§4) 2. Preparation of Compound Solution
(§5) 2.1 Dilution of Compound Solution
(§6) 1) The final concentration of the compound solution was 40 μM, and the concentration of the prepared stock solution was 50 times of the final concentration, i.e., 2 mM.
(§7) 2) 80 μL of 100% DMSO was added to the second well of the 96-well plate, then 20 μL of 10 mM compound solution was added, and thereby 2 mM compound solution was prepared, 60 μL of 100% DMSO was added to other wells, 20 μL of compound was taken from the second well, added to the third well and diluted by 4 times. This serial 4-time dilution was conducted in sequence for the total of 10 concentrations.
(§8) 2.2 5-Fold Compound Solution Transferred to a Reaction Plate
(§9) 1) 10 μL of solution was taken from each well of the above 96-well plate and added to another 96-well plate, and 90 μL of kinase buffer was added.
(§10) 2) 5 μL of solution was taken from the above 96-well plate and added to a 384-well reaction plate.
(§11) 1) KIT/PDGFRA kinase was added to the 1-fold kinase buffer solution to obtain a 2.5-fold kinase solution.
(§12) 2) FAM-labeled polypeptide and ATP were added to the 1-fold kinase buffer solution to obtain a 2.5-fold substrate solution.
(§13) 3) 10 μL of 2.5-fold kinase solution was added to the 384-well reaction plate, which already contained 5 μL of 5-fold compound in 10% DMSO. And the mixed solution was incubated at room temperature for 10 min.
(§14) 4) 10 μL of 2.5-fold substrate solution was added to the 384-well reaction plate.
(§15) 5) Kinase reaction and termination: the mixed solution was incubated at 28° C. for a certain period of time, and 25 μL of stop solution was added to stop the reaction.
(§16) 2.4 Data Reading of Caliper EZ Reader II
(§17) 2.5 Calculation of Percent Inhibition and IC50
(§18) 1) Percent conversion data were copied from the Caliper EZ Reader. […]

PDGFRA kinase = PDGFRA kinase (Homo sapiens, UniProt P16234); test: PDGFRA in vitro biochemical kinase study (Caliper EZ Reader); details: Caliper mobility shift; read-out: Enzymatic experiment PDGFRA IC50
Procedure: as §1, §2, §3, §4, §5, §6, §7, §8, §9, §10, §11, §12, §13, §14, §15, §16, §17, §18

[1] = tested on: M-07e human cytomegalic leukemia cells; test: Cell proliferation (Cell Titer Glo), M-07e cells with SCF (KIT); format: cell-based; details: 72 h, 3 days, CTG, * = average of multiple tests, read-out: Cytological experiment KIT IC50
Procedure: (§19) D. CSF-1R-Related Cell Proliferation Experiment
(§20) Functional effects of compounds on the proliferation of several cell lines were evaluated by Cell Titer Glo (CTG) studies in the present invention, and effects of the compounds on the proliferation of different cells were evaluated to determine the selectivity degree of the compounds. In the experiment, M-07e human cytomegalic leukemia cells (cat. No. CBP60791) from Nanjing Kebai Biotechnology Co., Ltd. were cultured in an incubator under conditions of RPMI1640 (Gibco, cat. No. 11875-119), 20% fetal bovine serum (Gibco, 10099-141), human 10 ng/mL GM-CSF granulocyte macrophage colony-stimulating factors (R&D, cat. No. 215-GM-010), 37° C., and 5% CO2; and Kasumi-1 human acute myeloblastic leukemia cells (cat. No. CBP60524) were cultured in an incubator under conditions of RPMI1640 (Gibco, cat. No. 11875-119), 20% fetal bovine serum (Gibco, 10099-141), 37° C., and 5% CO2: NCI-H1703 human non-small cell lung squamous carcinoma cells (cat. No. CBP60115) were cultured in an incubator under conditions of RPMI1640 (Gibco, cat. No. 11875-119), 10% fetal bovine serum (Gibco, 10099-141), 37° C., and 5% CO2; MV-4-11 human acute monocytic leukemia cells (cat. No. CBP60522) were cultured in an incubator under conditions of IMDM (Invitrogen, cat. No. 12440053), 20% fetal bovine serum (Gibco, 10099-141), 37° C., and 5% CO2. Since ATP is an index for viable cell metabolism, CTG (Promega, #G7573) reagent is a homogeneous detection method for detecting the number of viable cells in the culture by quantifying ATP. Therefore, compound-mediated inhibition for cell proliferation/survival was evaluated by quantifying ATP content in cells, and the specific experimental process was as follows.
I) M-07e Human Cytomegalic Leukemia Cell:
1. The cells were plated into a tissue-culture-medium-treated 96-well plate (Costar #3904) with 3500 cells/well/80 μL fresh culture medium, and cultured for 24 hrs;
(§21) 2. the next day, 10 μL of culture medium containing testing compound with 10-fold of final concentration was added to each well:
3. 10 μL of culture medium containing SCF recombinant human stem cell factor (R&D, cat. No. 7466-SC-010) with 10-fold of the final concentration was then added to each well;
4. the dosage effect was evaluated by testing 4-fold serial dilutions of the compound, which started from 18 μM;
5. after the cells were incubated for 3 days at 37° C. and 5% CO2, the inhibition on cell survival was quantified after 50 μL of CTG was added and the luminescence assay was performed;
6. the compound concentration leading to half maximal inhibitory (IC50) and the compound concentration leading to absolute half maximal inhibitory (Absolute IC50) were measured by a plate reader (M1000, Tecan) and a four-parameter curve fit in Graphpad Prism 7.

[2] = tested on: NCI-H1703 human non-small cell lung squamous carcinoma cells; test: Cell proliferation (Cell Titer Glo), NCI-H1703 cells (PDGFRA); format: cell-based; details: 72 h, 3 days, CTG, * = average of multiple tests, read-out: Cytological experiment PDGFRA IC50
Procedure: as §19, §20
II) NCI-H1703 Human Non-Small Cell Lung Squamous Carcinoma Cell
1. The cells were inoculated into a tissue-culture-medium-treated 96-well plate (Costar #3904) with 5000 cells/well/90 μL fresh culture medium, and cultured for 24 hrs;
as §21
3. the dosage effect was evaluated by testing 3-fold serial dilutions of the compound, which started from 18 μM;
4. after the cells were incubated for 3 days at 37° C. and 5% CO2, the inhibition on cell survival was quantified after 50 μL of CTG was added and the luminescence assay was performed:
5. the compound concentration leading to half maximal inhibitory (IC50) and the compound concentration leading to absolute half maximal inhibitory (Absolute IC50) were measured by a plate reader (M1000, Tecan) and a four-parameter curve fit in Graphpad Prism 7.

PDGFRA kinase, sequence (P16234 24-1089): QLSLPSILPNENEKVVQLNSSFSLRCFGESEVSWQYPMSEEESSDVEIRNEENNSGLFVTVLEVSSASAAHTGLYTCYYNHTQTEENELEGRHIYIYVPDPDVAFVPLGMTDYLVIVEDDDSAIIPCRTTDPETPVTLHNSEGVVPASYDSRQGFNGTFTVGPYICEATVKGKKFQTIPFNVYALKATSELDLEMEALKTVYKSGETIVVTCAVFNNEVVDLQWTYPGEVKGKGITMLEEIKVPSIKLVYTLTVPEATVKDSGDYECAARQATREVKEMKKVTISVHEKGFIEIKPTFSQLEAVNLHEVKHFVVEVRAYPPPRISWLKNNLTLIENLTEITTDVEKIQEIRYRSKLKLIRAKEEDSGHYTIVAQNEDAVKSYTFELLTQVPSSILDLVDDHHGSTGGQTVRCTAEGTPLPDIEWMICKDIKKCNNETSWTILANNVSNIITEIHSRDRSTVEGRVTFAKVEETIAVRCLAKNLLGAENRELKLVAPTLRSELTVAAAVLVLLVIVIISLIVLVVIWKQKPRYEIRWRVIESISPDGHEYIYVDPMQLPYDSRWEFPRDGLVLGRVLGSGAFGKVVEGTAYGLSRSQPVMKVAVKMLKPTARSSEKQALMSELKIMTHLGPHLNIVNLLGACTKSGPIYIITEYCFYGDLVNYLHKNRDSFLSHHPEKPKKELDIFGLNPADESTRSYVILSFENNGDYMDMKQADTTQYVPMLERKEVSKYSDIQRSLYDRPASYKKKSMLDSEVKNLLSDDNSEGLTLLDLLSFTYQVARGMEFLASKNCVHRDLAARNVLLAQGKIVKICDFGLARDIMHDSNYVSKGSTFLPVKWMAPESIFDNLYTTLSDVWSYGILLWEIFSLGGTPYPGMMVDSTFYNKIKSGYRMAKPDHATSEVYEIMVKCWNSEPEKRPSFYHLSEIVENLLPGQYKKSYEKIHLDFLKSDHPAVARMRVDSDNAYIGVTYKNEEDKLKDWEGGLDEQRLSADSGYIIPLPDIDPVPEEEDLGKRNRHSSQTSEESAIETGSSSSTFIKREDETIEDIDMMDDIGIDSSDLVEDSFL
KIT kinase, sequence (P10721 26-976): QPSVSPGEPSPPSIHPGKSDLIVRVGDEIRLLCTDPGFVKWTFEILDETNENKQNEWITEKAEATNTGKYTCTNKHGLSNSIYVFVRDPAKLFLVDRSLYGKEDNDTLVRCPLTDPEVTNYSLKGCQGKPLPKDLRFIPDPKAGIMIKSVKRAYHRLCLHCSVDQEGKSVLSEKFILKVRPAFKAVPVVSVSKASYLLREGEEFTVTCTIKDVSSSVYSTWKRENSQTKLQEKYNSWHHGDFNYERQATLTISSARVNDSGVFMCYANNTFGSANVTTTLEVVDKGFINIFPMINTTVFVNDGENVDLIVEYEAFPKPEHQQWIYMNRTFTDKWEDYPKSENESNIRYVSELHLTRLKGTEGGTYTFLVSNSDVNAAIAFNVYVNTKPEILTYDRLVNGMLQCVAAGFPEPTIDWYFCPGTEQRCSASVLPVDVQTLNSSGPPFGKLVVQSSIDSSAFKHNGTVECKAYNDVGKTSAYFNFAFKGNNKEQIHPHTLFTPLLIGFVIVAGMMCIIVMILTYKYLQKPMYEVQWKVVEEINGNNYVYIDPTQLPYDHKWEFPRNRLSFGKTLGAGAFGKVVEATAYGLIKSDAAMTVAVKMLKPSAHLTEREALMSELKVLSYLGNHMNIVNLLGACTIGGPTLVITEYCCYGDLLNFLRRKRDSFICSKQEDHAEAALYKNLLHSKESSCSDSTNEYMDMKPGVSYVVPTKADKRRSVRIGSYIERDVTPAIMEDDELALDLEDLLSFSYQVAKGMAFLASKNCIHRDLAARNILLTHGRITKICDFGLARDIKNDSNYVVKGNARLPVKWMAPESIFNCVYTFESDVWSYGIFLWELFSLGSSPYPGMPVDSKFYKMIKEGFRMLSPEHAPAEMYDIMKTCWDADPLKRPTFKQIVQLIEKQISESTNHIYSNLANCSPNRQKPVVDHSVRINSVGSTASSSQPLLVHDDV

| pIC50 (KIT kinase) | pIC50 (PDGFRA kinase) | pIC50 [1] | pIC50 [2] | SMILES |
| --- | --- | --- | --- | --- |
| 6.44 | 5.03 | < 5.70 | < 4.74 | Cc1nc(-c2cnc3n(c2=O)CCCN3C)ccc1Oc1ccnc(-c2cnn(C)c2)c1 [Example 1, 9-methyl-3-(6-methyl-5-((2-(1-methyl-1H-pyrazol-4-yl)pyridin-4-yl)oxy)pyridin-2-yl)-6,7,8,9-tetrahydro-4H-pyrimido[1,2-a]pyrimidin-4-one] |
| 7.69 | 6.12 | 6.36 | < 5.70 | CCN1CCCn2c1ncc(-c1ccc(Oc3ccnc(-c4cnn(C)c4)c3)c(C)n1)c2=O [Example 4] |
